Series [1] has as its system isolated colonic segments from the shrew. As to the kind of experiment: Contractile activity of isolated muscle strips of the shrew. An excerpt: J. Evaluation of Contractile Activity of Isolated Muscle Strips from the Stomach, Duodenum and Colon of the Shrew.
Motilin (threshold concentration of 10^−8 M) enhances contractions induced by electrical field stimulation (4 Hz) by a post-ganglionic interaction with the cholinergic neurotransmission. At higher concentrations, motilin causes a tonic contraction interacting directly with the antral smooth muscle. Analogously, the effects of motilin and [Nle^13]-motilin (Calbiochem), as selective agonists of the motilin receptor, on smooth muscle strips isolated from the gastric antrum, the circular muscle of the duodenum and the colon of the shrew were investigated. Immunohistochemical studies have shown that endocrine cells in the GI tract of the musk shrew express motilin (Kanamori, Y.; Nakazawa, S.; Kitoh, J.; Hoshino, M. The distribution of endocrine cells in the mucosa of the gastrointestinal tract of the house musk shrew, Suncus murinus (Insectivora). Cell. Tissue Res. 1989, 258, 365-71; Kitamura, N.; Yamada, J.; Watanabe, T.; Yamashita, T. An immunohistochemical study on the distribution of endocrine cells in the gastrointestinal tract of the musk shrew, Suncus murinus. Histol Histopathol. 1990, 5, 83-88.) Shrews were fasted for 8-10 h, euthanized with CO2 inhalation, and the stomach, the duodenum and colon isolated immediately and placed in Krebs buffer aerated with 95% O2 and 5% CO2. Specifically, mucosa-free circular muscle strips were isolated from the antral region, the duodenum and the colon using a dissecting microscope. Isometric contractions were recorded in organ baths following equilibration at optimal tension using the PowerLab data acquisition system. […]
To define the effect of test compounds on different regions of the GI tract of the shrew (gastric antrum, […] and colon) and to evaluate the antagonist affinity of test compounds in this model system, the ability of varying concentrations of test compound to antagonize the motilin or [Nle^13]-motilin-induced contractions was measured in organ baths as described above. […]

A short description of series [2]: Oral bioavailability in rat of representative formulations of compound 552. The class given is in vivo. An excerpt:
The pharmacokinetic behavior of compound of the invention can be ascertained by methods well known to those skilled in the art. (Wilkinson, G. R. “Pharmacokinetics: The Dynamics of Drug Absorption, Distribution, and Elimination” in Goodman & Gilman's The Pharmacological Basis of Therapeutics, Tenth Edition, Hardman, J. G.; Limbird, L. E., Eds., McGraw Hill, Columbus, Ohio, 2001, Chapter 1.) The following method was used to investigate the pharmacokinetic parameters (elimination half-life, total plasma clearance, etc.) for intravenous, subcutaneous and oral administration of compounds of the present invention.
Preparation of Representative Formulations of Compounds of the Invention
The pharmacokinetic parameters of representative formulations are determined through established methods known to those skilled-in the art as previously referenced in Method 3-I. Results with representative formulations for a representative compound of the present invention are shown below.

[3] abbreviates: oral 8 mg/kg, 5% HP-β-CD in water.
The mark [4] stands for this setting: oral 8 mg/kg, Cremophor EL/Lysorbate 80/Soybean oil.
Setting [5] is: oral 8 mg/kg, Oleic Acid/Labrafil.
Where [6] appears, read: plasma, IV 2 mg/kg, 5% HP-β-CD in water.
[7] abbreviates: plasma, iv, 2 mg/kg, IV 2 mg/kg, 5% HP-β-CD in water.
[8] abbreviates: plasma, po, 8 mg/kg, oral 8 mg/kg, 5% HP-β-CD in water.
The mark [9] stands for this setting: plasma, po, 8 mg/kg, oral 8 mg/kg, Cremophor EL/Lysorbate 80/Soybean oil.
Where [10] appears, read: plasma, po, 8 mg/kg, oral 8 mg/kg, Oleic Acid/Labrafil.

The structures appear in SMILES notation. Several values for one entry are separate records, joined by “and”; a condition that tells them apart may be missing. Identical values can stand only once.

As to `CCC[C@@H]1NC(=O)[C@@H](C(C)C)NC(=O)[C@@H](Cc2ccc(O)c(Cl)c2)N[C@@H](C)COc2ccccc2CCCNC1=O` [Compound 552], in series [1] (0.01 μM-10 μM, FIG. 18), the “effect on contractile response to 0.3 μM [Nle^13]-motilin” value is listed as “dose-dependent inhibition”. Besides, in series [1] (0.01 μM-10 μM, FIG. 18), the “effect on contractile response to 0.3 μM motilin” value was “dose-dependent inhibition”. Besides, the “change in basal contractile activity” value in series [1] (data not shown) is given as “did not cause a significant change”. Besides, the “F (%) (average)” value in series [2] (setting [3]) came out at 10 ± 5%; in series [2] (setting [4]) it was 16 ± 1%; in series [2] (setting [5]), 14 ± 7%. Further, the “Tmax (min)” value in series [2] (setting [3]) is recorded as 5/15; in series [2] (setting [4]), 15/30; in series [2] (setting [5]), 30/60. Moreover, the “F (%) (individual results)” value in series [2] (oral 8 mg/kg, 5% HP-β-CD in water, 8 mg/kg) is 6% and 15% and 9%; in series [2] (oral 8 mg/kg, Cremophor EL/Lysorbate 80/Soybean oil, 8 mg/kg) it was 18% and 15% and 16%; in series [2] (oral 8 mg/kg, Oleic Acid/Labrafil, 8 mg/kg), 7% and 21% and 15%. Besides, the Clearance in series [2] (setting [6]) was 55 ± 10 mL/min/kg. Also, in series [2] (setting [6]), the Tmax was 5 min. Moreover, the half-life in series [2] (setting [6]) stood at 45 ± 13 min. Besides, the total exposure AUC(0-inf) is 616 ng·h/mL in series [2] (setting [7]), 255 ng·h/mL in series [2] (setting [8]), 397 ng·h/mL in series [2] (setting [9]) and 357 ng·h/mL in series [2] (setting [10]). The Cmax turned out to be 1720 ± 299 ng/mL in series [2] (setting [7]), 369 ± 97 ng/mL in series [2] (setting [8]), 229 ± 162 ng/mL in series [2] (setting [9]) and 143 ± 77 ng/mL in series [2] (setting [10]).

Values taken from US9133235B2, “Macrocyclic antagonists of the motilin receptor for treatment of gastrointestinal dysmotility disorders” (Ocera Therapeutics, Inc., priority 2006, dated 2015).
